The record followed here is patent publication US20130122541A1, “MICROORGANISM PRODUCTION OF HIGH-VALUE CHEMICAL PRODUCTS, AND RELATED COMPOSITIONS, METHODS AND SYSTEMS” (The Regents of the University of Colorado, priority 2010, published 2013).

One test relates to E. coli Mach1-T1R. Nature of the test: MIC of 3-HP, microaerobic 96 well-plate, MOPS minimal media with supplements (Example 36). The format is cell-based, Escherichia coli. To be noted: increase of the 3-HP MIC, 24 h. On the procedure:
3-HP was obtained from TCI America (Portland, Oreg.). Significant acrylic acid and 2-oxydipropionic contamination was observed via HPLC analysis. Samples were subsequently treated by diethyl ether extraction to remove acrylic acid and a portion of the 2-oxydipropionic contaminants. Samples were then neutralized with 10 M NaOH to a final pH of 7.0. […] The working stock solution was used for the selection, growth rates and MIC evaluations in this example.
Overnight cultures of strains were grown in 5 ml LB (with antibiotic where appropriate). A 1 v/v % was used to inoculate a 15 ml conical tube filled to the top with MOPS minimal media and capped. After the cells reached mid exponential phase, the culture was diluted to an OD600 of 0.200. The cells were further diluted 1:20 and a 10 ul aliquot was used to inoculate each well (˜10^4 cells per well).

Test [1] relates to Yeast strains (S288C background). The test can be described thus: microbe, parasite or virus in culture. To be noted: for average MIC Assay Result (g/L 3-HP): MIC of 3-HP; for average MIC Assay Result (g/L 3-HP) / MIC: S288C, SD media plus the named supplement(s); for MIC: Saccharomyces cerevisiae, read-out: Average MIC Assay Result (g/L 3-HP), MIC of 3-HP. The format is cell-based, Saccharomyces cerevisiae. On the procedure:
The minimum inhibitory concentration (MIC) was determined aerobically in a 96 well-plate format. […] Media supplements were added according to levels reported in the Supplements Table, where specified. Overnight cultures of strains were grown in triplicate in 5 mL SD media with vitamins (Methods in Enzymology vol. 350, page 17 (2002)). A 1% (v/v) inoculum was introduced into a 5 ml culture of SD minimal media without vitamins. After the cells reached mid-exponential phase, the culture was diluted to an OD600 of 0.200. The cells were further diluted 1:5 and a 10 μL aliquot was used to inoculate each well of a 96 well plate (˜10^4 cells per well) to total volume of 100 uL. […] Plates were incubated for 72 hours at 30 C.

Test [2] shares this test system. Nature of the test: microbe, parasite or virus in culture. Type of test: cell-based, Saccharomyces cerevisiae. The settings on record: for average MIC Assay Result (g/L 3-HP): MIC of 3-HP. On the procedure:
The minimum inhibitory concentration (MIC) was determined anaerobically in a 96 well-plate format. […] A 1% (v/v) inoculum was introduced into a 5 ml culture of SD minimal media without vitamins. After the cells reached mid-exponential phase, the culture was diluted to an OD600 of 0.200. The cells were further diluted 1:5 and a 10 μL aliquot was used to inoculate each well of a 96 well plate (˜10^4 cells per well) to total volume of 100 uL. […] Plates were incubated for 72 hours at 30 C. […] Plates were sealed in biobag anaerobic chambers that contained gas generators for anaerobic conditions and incubated for 72 hours at 30 C.

A further test deals with E. coli. The test can be described thus: microbe, parasite or virus in culture. Type of test: cell-based. On the procedure: (§1) For MIC evaluations, the final results are expressed in chemical agent concentrations determined by analysis of the stock solution by HPLC (i.e., see Subsection IIIb).
The minimum inhibitory concentration (MIC) was determined aerobically in a 96 well-plate format. […] Media supplements were added according to levels reported in the Supplements Table, where specified. Overnight cultures of strains were grown in triplicate in 5 mL LB (with antibiotic where appropriate). A 1% (v/v) inoculum was introduced into a 5 ml culture of M9 minimal media.

The next test has as its system MACH1-T1R. Nature of the test: MIC, microaerobic 96 well-plate, MOPS minimal media, IroK expression studies (Example 45). Type of test: cell-based, E. coli. To be noted: for MIC of other organic acids of similar molecular makeup on IroK expression: IroK expressed from pKK223-3. On the procedure:
The two oligonucleotides were added in a 1:1 ratio and annealed according to standard methodology in a thermal cycler. Ligation of the annealed primer product with the pKK223-3 expression vector (SEQ ID NO:008, Pharmacia, Piscataway, N.J.) was performed with T4 Ligase (Invitrogen, Carlsbad, Calif.) and incubated at 25° C. overnight. The ligation product was then electroporated into competent MACH1™-T1^R, plated on LB+ampicillan, and incubated at 37° C. for 24 hours. Plasmids were isolated and confirmed by purification and subsequent restriction digest and sequencing (Macrogen, Rockville, Md.). MICs were then determined corresponding to 1 mM IPTG induction.
The minimum inhibitory concentration (MIC) was determined microaerobically in a 96 well-plate format. Overnight cultures of strains were grown in 5 mL LB (with antibiotic where appropriate). A 1% (v/v) inoculum was introduced into a 15 ml culture of MOPS minimal media. After the cells reached mid-exponential phase, the culture was diluted to an OD600 of 0.200. The cells were further diluted 1:20 and a […] aliquot was used to inoculate each well of a 96 well plate (˜10^4 cells per well).

A further test relates to B. subtilis. Nature of the test: MIC evaluation of 3-HP, B. subtilis aerobic, M9 media + glutamate, 96 well-plate, 24 h (Common Methods). The settings on record: for Avg 24 hr ΔOD600: 3HP tolerance, B. subtilis 168, M9 + glu + trp plus the named supplement(s); for % Increase Over Control: ΔOD600 with named supplement(s) vs B. subtilis 168 without supplement. The format is cell-based. On the procedure: as §1
The minimum inhibitory concentration (MIC) was determined aerobically in a 96 well-plate format. […] Media supplements were added according to levels reported in the Supplements Table where specified. Overnight cultures of strains were grown in triplicate in 5 mL LB (with antibiotic where appropriate). A 1% (v/v) inoculum was introduced into a 5 ml culture of M9 minimal media+glutamate.

In another test the test system is E. coli K12. Nature of the test: microbe, parasite or virus in culture. The settings on record: Escherichia coli, K12, 24 h, read-out: Minimum inhibitory concentration (MIC) of 3-HP for E. coli K12 in M9 minimal media supplemented with the substance.
[3] abbreviates: 3-HP MIC with named supplement(s) vs S288C in SD without supplement, aerobic.
[4] abbreviates: 3-HP MIC with named supplement(s) vs S288C in SD without supplement, anaerobic.
The mark [5] stands for this setting: S288C, SD media plus the named supplement(s), anaerobic.
[6] abbreviates: MIC of 3-HP for strain BW25113, M9 media with the named supplement(s), aerobic, 24-hour MIC evaluation.
The mark [7] stands for this setting: increase of 3-HP MIC over BW25113 in M9 without supplements, M9 media with the named supplement(s), aerobic.

≈ marks a conversion by molar mass, not a printed value. Where two headings read alike, the source gives them in different places.

Consider `N[C@@H](Cc1ccccc1)C(=O)O` [phenylalanine], for which the “MIC increase resulting from supplementation” value (from here on “MIC increase resulting”) in the test with E. coli Mach1-T1R stood at 33%.
Turning to `NCCCCN` [Putrescine(C)], the figures for the “% Increase Over Control” value in test [1] and in test [2] were 22% and 56%, respectively.
Regarding `CSCC[C@H](N)C(=O)O` [Methionine (B)], the “% Increase Over Control” value turned out to be 36% in the test with E. coli, 59% in test [1] and 167% in test [2]. Besides, the “average MIC Assay Result (g/L 3-HP)” value in the test on E. coli was determined as 38 g/L 3-HP.
`Nc1ccc(C(=O)O)cc1` [p-aminobenzoic acid]: the “MIC increase resulting” value with E. coli Mach1-T1R was determined as 7%.
On the same count and under the same terms, for `N[C@@H](Cc1c[nH]c2ccccc12)C(=O)O` [tryptophan] the value was 33%.
Regarding `NCC(=O)O` [Glycine (B)], the “% Increase Over Control” value with E. coli stood at 3%; in test [1] (setting [3]), 11%; in test [2] (setting [4]), 60%. Besides, the “average MIC Assay Result (g/L 3-HP)” value is 28 g/L 3-HP in the test with E. coli, 50 g/L in test [1] (aerobic) and 60 g/L in test [2] (setting [5]).
Regarding `CC(O)C(=O)O` (centres unmarked) [lactic, lactic acid], the “MIC of other organic acids of similar molecular makeup on IroK expression” value (shortened to “MIC of other organic acids … on IroK expression”) in the test with MACH1-T1R is “unchanged”.
Regarding `Cc1ncc(CO)c(CO)c1O.Cl` [pyridoxine hydrochloride], in the test with E. coli Mach1-T1R, the “MIC increase resulting” value was 0%.
For the molecule `O=C(O)CC(O)(CC(=O)O)C(=O)O` [Citrate], in the test on B. subtilis, the “Avg 24 hr ΔOD600” value is 0.30 and the “% Increase Over Control” value came to 674%.
As to MKPALRDFIAIVQERLASVTA [IroK], in the test on MACH1-T1R (expressed from pKK223-3, 1 mM IPTG, microaerobic, MOPS minimal media, 24 h), the “fold increase in MIC of 3-HP on increased expression of IroK” value is reported as over 2 fold.
For the molecule `NNC(=O)c1ccc(O)cc1` [p-hydroxybenzoic acid hydrazide], the “MIC increase resulting” value with E. coli Mach1-T1R was found to be 33%.
Turning to `N[C@@H](CCO)C(=O)O` [homoserine], the “MIC increase resulting” value with E. coli Mach1-T1R came to 33%.
As to `NCCCCN` [putrescine], in the test with E. coli K12, the MIC worked out at 40 mg/mL (≈ 454 mM).
For the molecule `NC(=O)NCCC[C@H](N)C(=O)O` [Citrulline (C)], the “average MIC Assay Result (g/L 3-HP)” value came out at 30 g/L 3-HP in the test with E. coli (setting [6]), 58 g/L in test [1] (aerobic) and 97 g/L in test [2] (setting [5]). Besides, the “% Increase Over Control” value in the test with E. coli (setting [7]) turned out to be 9%; in test [1] (setting [3]) it was 28%; in test [2] (setting [4]), 158%.
Consider `NCCCCCN` [cadaverine], for which the MIC in the test with E. coli K12 was 30 mg/mL (≈ 294 mM).
For the molecule `CSCC[C@H](N)C(=O)O` [Methionine], in the test on B. subtilis, the “Avg 24 hr ΔOD600” value turned out to be 0.15 and the “% Increase Over Control” value is reported as 282%.
On to `CCC(=O)C(=O)O` [2-oxobutyrate (B)], for which the “% Increase Over Control” value in test [1] (setting [3]) is 11%; in test [2] (setting [4]) it was 2%. Besides, the “average MIC Assay Result (g/L 3-HP)” value in test [1] (aerobic) is reported as 50 g/L; in test [2] (setting [5]), 38 g/L.
With `Cl.NC1CCSC1=O` (centres unmarked) [homocysteine thiolactone hydrochloride], the “MIC increase resulting” value with E. coli Mach1-T1R was 60%.
For `N[C@@H](Cc1ccc(O)cc1)C(=O)O` [tyrosine], the “MIC increase resulting” value in the test on E. coli Mach1-T1R was found to be 40%.
`Nc1ccc(C(=O)O)cc1` [p-aminobenzoate]: in the test on B. subtilis, the “Avg 24 hr ΔOD600” value came to 0.07 and the “% Increase Over Control” value stood at 89%.
On to `O=C(O)c1cccc(O)c1O` [2,3-didyroxybenzoic acid, 2,3-dihydroxybenzoic acid], for which the “MIC increase resulting” value with E. coli Mach1-T1R is reported as 33%.
As for `NCCCCNCCCN` [spermidine], in the test on B. subtilis, the “Avg 24 hr ΔOD600” value amounted to 0.09 and the “% Increase Over Control” value came out at 140%. In addition, the MIC in the test with E. coli K12 was found to be 40 mg/mL (≈ 275 mM).
`C=CC(=O)O` [acrylic, acrylic acid]: the “MIC of other organic acids … on IroK expression” value in the test on MACH1-T1R is recorded as “unchanged”.
Take `O=C(O)O` [Bicarbonate]: in the test with B. subtilis, the “Avg 24 hr ΔOD600” value was found to be 0.06 and the “% Increase Over Control” value was determined as 56%.
Consider `N[C@@H](CC(=O)O)C(=O)O` [Aspartate], for which, in test [1] (setting [3]), the “% Increase Over Control” value turned out to be 26%. Also, the MIC in test [1] (aerobic) was determined as 57 g/L.
Consider `C[C@@H](O)[C@H](N)C(=O)O` [threonine], for which the “MIC increase resulting” value in the test on E. coli Mach1-T1R is on record as 3%.
Consider `N[C@@H](Cc1c[nH]c2ccccc12)C(=O)O` [Tryptophan (A)], for which the “% Increase Over Control” value came to 20% in test [1] (setting [3]) and 47% in test [2] (setting [4]). The MIC in test [1] (aerobic) was found to be 54 g/L; in test [2] (Saccharomyces cerevisiae, read-out: Average MIC Assay Result (g/L 3-HP), MIC of 3-HP, S288C, SD media plus the named supplement(s), anaerobic), 55 g/L.
As for `CCC(=O)C(=O)O` [oxobutanoate], the “MIC increase resulting” value with E. coli Mach1-T1R worked out at 7%.
As for `CC(=O)O` [acetic, acetic acid], in the test with MACH1-T1R, the “MIC of other organic acids … on IroK expression” value is reported as “unchanged”.
As for `O=C(O)C1=C[C@@H](O)[C@@H](O)[C@H](O)C1` [Shikimate (A)], the “average MIC Assay Result (g/L 3-HP)” value with E. coli (setting [6]) worked out at 28 g/L 3-HP; in test [1] (aerobic), 80 g/L; in test [2] (setting [5]) it was 60 g/L. Also, the figures for the “% Increase Over Control” value (in the test on E. coli (setting [7]); in test [1] (setting [3]); in test [2] (setting [4])) were 3%, 78% and 60%, respectively.
